Source: patent US20250268826A1, “IONIZABLE LIPIDOID COMPOSITIONS AND THERAPEUTIC USES THEREOF” (Flagship Pioneering Innovations VII, LLC, priority 2023, published 2025)

Assays:
[1] = Apparent pKa of the LNPs by fluorescence based TNS assay; details: for Apparent pKa: Vaccine Study 2, LNP with spike mRNA, 50/10/38.5/1.5 mol % ionizable lipid:helper lipid:cholesterol:DMG-PEG2k, N-to-P ratio 6
[2] = Encapsulation efficiency (EE %) by fluorescence based Ribogreen assay; type: physicochemical
[3] = LNP Zeta potential measured using a Zetasizer (Malvern); type: physicochemical; details: for Zeta potential: hEPO mRNA, N:P 6; for Zeta potential (mV): LNP with hEPO mRNA, N:P ratio 6
[4] = LNP size and polydispersity index (PDI) by dynamic light scattering (DLS); type: physicochemical
[5] = Table 8, LNP 50:10:38.5:1.5 mol %, hEPO mRNA, N:P 6
[6] = Table 8, LNP 50:10:38.5:1.5 mol %
[7] = Table 8, LNP Lipid:DSPC:Cholesterol:DMG-PEG2k 50:10:38.5:1.5 mol %, hEPO mRNA, N:P 6
[8] = Vaccine Study 2, LNP with spike mRNA, 50/10/38.5/1.5 mol % ionizable lipid:helper lipid:cholesterol:DMG-PEG2k, N-to-P ratio 6
[9] = Table 9, LNP 50:10:38.5:1.5 mol %, hEPO mRNA, N:P 6
[10] = Table 9, LNP 50:10:38.5:1.5 mol %
[11] = Table 9, LNP Lipid:DSPC:Cholesterol:DMG-PEG2k 50:10:38.5:1.5 mol %, hEPO mRNA, N:P 6
[12] = Table 5, LNP 50:10:38.5:1.5 mol %, hEPO mRNA, N:P 6
[13] = Table 5, LNP 50:10:38.5:1.5 mol %
[14] = Table 5, LNP Lipid:DSPC:Cholesterol:DMG-PEG2k 50:10:38.5:1.5 mol %, hEPO mRNA, N:P 6
[15] = Table 11, LNP with hEPO mRNA, Lipid:DSPC:Cholesterol:DMG-PEG2k 50:10:38.5:1.5 mol % (ALC-0315: 46.3:9.4:42.7:1.6), N:P ratio 6, HEPES/sodium chloride/sucrose buffer, stored at −80C
[16] = Table 11, Lipid:DSPC:Cholesterol:DMG-PEG2k 50:10:38.5:1.5 mol % (ALC-0315: 46.3:9.4:42.7:1.6), HEPES/sodium chloride/sucrose buffer, stored at −80C
[17] = Table 10, LNP with hEPO mRNA, Lipid:DSPC:Cholesterol:DMG-PEG2k 50:10:38.5:1.5 mol %, N:P ratio 6, Ribogreen assay
[18] = Table 10, Lipid:DSPC:Cholesterol:DMG-PEG2k 50:10:38.5:1.5 mol %
[19] = Table 10, LNP with hEPO mRNA, Lipid:DSPC:Cholesterol:DMG-PEG2k 50:10:38.5:1.5 mol %, N:P ratio 6, DLS
[20] = Table 1, LNP lipid:DSPC:Cholesterol:DMG-PEG2k 50:10:38.5:1.5 mol %, hEPO mRNA, N:P 6
[21] = Table 1, LNP lipid:DSPC:Cholesterol:DMG-PEG2k 50:10:38.5:1.5 mol %
[22] = Table 5, LNP 60:0:38.5:1.5 mol %, hEPO mRNA, N:P 6

## CCCCCCCC(CCCCCCC)C(=O)OCCN(CCOC(=O)C(CCCCCCC)CCCCCCC)C(=O)CCCN(C)C [Compound 932]
[1]; Table 8, apparent pKa of LNP 50:10:38.5:1.5 mol %, hEPO mRNA, N:P 6
  pKa: 6.92
[2]; [5]
  Encapsulation Efficiency %: 99.9%
[3]; [6]
  Zeta potential: −9.4 mV
[4]; [5]
  PDI: 0.155
[4]; [7]
  Size: 123.7 nm

## CCCCC/C=C\C/C=C\CCCCCCCCC(CCCCCCCC/C=C\C/C=C\CCCCC)OC(=O)CCCN(C)C [Dlin-MC3-DMA, dilinoleylmethyl-4-dimethylaminobutyrate, reference compound]
[1]
  Apparent pKa: 6.7

## CCCCCCCCC(CCCCCC)C(=O)OCCN(CCOC(=O)C(CCCCCC)CCCCCCCC)C(=O)CCCN(CCC)CCC.Cl (stereo not drawn) [Compound 981]
[1]
  Apparent pKa: 7.3
[2]; [8]
  EE (%): 98.3%
[3]; [8]
  Zeta (mV): −8.8 mV
[4]; [8]
  PDI: 0.054
  Size (nm): 84.3 nm

## CCCCCCCCC(CCCCCC)C(=O)OCCN(CCOC(=O)C(CCCCCC)CCCCCCCC)C(=O)CN(CC)CCC.Cl (single isomer, unassigned) [Compound 960b]
[2]; [9]
  Encapsulation Efficiency %: 99.8%
[3]; [10]
  Zeta potential: −23.35 mV
[4]; [9]
  PDI: 0.099
[4]; [11]
  Size: 61.4 nm

## CCCCCCCCC(CCCCCC)C(=O)OCCN(CCOC(=O)C(CCCCCC)CCCCCCCC)C(=O)CNC.Cl (stereo not drawn) [Compound 964]
[2]; [9]
  Encapsulation Efficiency %: 99.3%
[3]; [10]
  Zeta potential: −26.13 mV
[4]; [9]
  PDI: 0.317
[4]; [11]
  Size: 73.9 nm

## CCCCCCC(CCCC)C(=O)OCCN(CCOC(=O)C(CCCC)CCCCCC)C(=O)CN (stereo not drawn) [Compound 602]
[2]; [12]
  Encapsulation Efficiency %: 99.1%
[3]; [13]
  Zeta potential: −5.94 mV
[4]; [12]
  PDI: 0.337
[4]; [14]
  Size: 84.8 nm

## CCCCCCCCC(CCCCCC)C(=O)OCCN(CCOC(=O)C(CCCCCC)CCCCCCCC)C(=O)CCCN(C)CCC.Cl (stereo not drawn) [Compound 938]
[2]; [5]
  Encapsulation Efficiency %: 99.9%
[3]; [6]
  Zeta potential: −18.3 mV
[4]; [5]
  PDI: 0.248
[4]; [7]
  Size: 103.7 nm

## CCCCCCCCCC(CCCCCCCCC)C(=O)OCCN(CCOC(=O)C(CCCCCCCCC)CCCCCCCCC)C(=O)C(C)CCN(C)C.Cl (stereo not drawn) [Compound 987c]
[2]; [15]
  Encapsulation Efficiency %: 98.0%
[3]; [16]
  Zeta potential (mV): −6.6 mV
[4]; [15]
  PDI: 0.066
  Size (nm): 72.0 nm

## CCCCCCCCC(CCCCCC)C(=O)OCCN(CCOC(=O)C(CCCCCC)CCCCCCCC)C(=O)CN1CCOCC1.Cl (stereo not drawn) [Compound 960e]
[2]; [9]
  Encapsulation Efficiency %: 99.4%
[3]; [10]
  Zeta potential: −45.58 mV
[4]; [9]
  PDI: 0.384
[4]; [11]
  Size: 73.3 nm

## CCCCCCCCC(CCCCCC)C(=O)OCCN(CCOC(=O)C(CCCCCC)CCCCCCCC)C(=O)CN(C)CC.Cl (stereo not drawn) [Compound 966]
[2]; [9]
  Encapsulation Efficiency %: 97.8%
[3]; [10]
  Zeta potential: −36.65 mV
[4]; [9]
  PDI: 0.076
[4]; [11]
  Size: 89.5 nm

## CCCCCCCCCCCCC(CC)C(=O)OCCN(CCOC(=O)C(CC)CCCCCCCCCCCC)C(=O)CN (stereo not drawn) [Compound 606]
[2]; [12]
  Encapsulation Efficiency %: 99.9%
[3]; [13]
  Zeta potential: −2.662 mV
[4]; [12]
  PDI: 0.457
[4]; [14]
  Size: 57.2 nm

## CCCCCCCCC(CCCCCC)C(=O)OCCN(CCOC(=O)C(CCCCCC)CCCCCCCC)C(=O)CCCN(CC)CCC.Cl (stereo not drawn) [Compound 980]
[2]; [5]
  Encapsulation Efficiency %: 94.9%
[3]; [6]
  Zeta potential: −18.1 mV
[4]; [5]
  PDI: 0.159
[4]; [7]
  Size: 90.1 nm

## CCCCCCCCC(CCCCCC)C(=O)OCCN(CCOC(=O)C(CCCCCC)CCCCCCCC)C(=O)C(C)CCN1CCOCC1.Cl (stereo not drawn) [Compound 987n]
[2]; [15]
  Encapsulation Efficiency %: 77.8%
[3]; [16]
  Zeta potential (mV): −3.8 mV
[4]; [15]
  PDI: 0.107
  Size (nm): 65.7 nm

## CCCCCCCC/C=C\CCCCCCCC(=O)OCCN(CCOC(=O)C(CCCCCC)CCCCCCCC)C(=O)CCN(CC)CC (stereo not drawn) [Compound 917a]
[2]; [17]
  Encapsulation Efficiency %: 43.4%
[3]; [18]
  Zeta potential (mV): −5.5 mV
[4]; [19]
  PDI: 0.124
  Size (nm): 82.8 nm

## CCCCCCCCC(CCCCCC)C(=O)OCCN(CCOC(=O)C(CCCCCC)CCCCCCCC)C(=O)CN1CCCCC1.Cl (stereo not drawn) [Compound 960d]
[2]; [9]
  Encapsulation Efficiency %: 99.5%
[3]; [10]
  Zeta potential: −32.3 mV
[4]; [9]
  PDI: 0.133
[4]; [11]
  Size: 74.5 nm

## CCCCCCCCCCCC(=O)OCCN(CCOC(=O)CCCCCCCCCCC)C(=O)CN [Compound 103]
[2]; [20]
  Encapsulation Efficiency %: 97.5%
[3]; [21]
  Zeta potential: 9.778 mV
[4]; [20]
  PDI: 0.092
  Size: 77.3 nm

## CCCCCCCCC(CCCCCC)C(=O)OCCN(CCOC(=O)C(CCCCCC)CCCCCCCC)C(=O)CCNCC.Cl (stereo not drawn) [Compound 905]
[2]; [5]
  Encapsulation Efficiency %: 100%
[3]; [6]
  Zeta potential: −2.9 mV
[4]; [5]
  PDI: 0.204
[4]; [7]
  Size: 70.4 nm

## CCCCCCCCCCCCC(CC)C(=O)OCCN(CCOC(=O)C(CC)CCCCCCCCCCCC)C(=O)C(C)N (stereo not drawn) [Compound 613]
[2]; [12]
  Encapsulation Efficiency %: 99.8%
[3]; [13]
  Zeta potential: −6.511 mV
[4]; [12]
  PDI: 0.236
[4]; [14]
  Size: 53.7 nm

## CCCCCCCCCC(=O)OCCN(CCOC(=O)CCCCCCCCC)C(=O)C(N)CCCCN (stereo not drawn) [Compound 122]
[2]; [20]
  Encapsulation Efficiency %: 94.2%
[3]; [21]
  Zeta potential: 6.541 mV
[4]; [20]
  PDI: 0.259
  Size: 71.8 nm

## CCCCCCCC/C=C\CCCCCCCC(=O)OCCN(CCOC(=O)C(CCCCCC)CCCCCCCC)C(=O)CCN1CCCCC1 (stereo not drawn) [Compound 917h]
[2]; [17]
  Encapsulation Efficiency %: 91.4%
[3]; [18]
  Zeta potential (mV): −8.2 mV
[4]; [19]
  PDI: 0.137
  Size (nm): 89.6 nm

## CCCCCCCCC(CCCCCC)C(=O)OCCN(CCOC(=O)C(CCCCCC)CCCCCCCC)C(=O)CCNC.Cl (stereo not drawn) [Compound 904]
[2]; [5]
  Encapsulation Efficiency %: 100%
[3]; [6]
  Zeta potential: −1.6 mV
[4]; [5]
  PDI: 0.189
[4]; [7]
  Size: 86.7 nm

## CCCCCCCC(CCCCCCC)C(=O)OCCN(CCOC(=O)C(CCCCCCC)CCCCCCC)C(=O)C(N)Cc1ccccc1 (stereo not drawn) [Compound 618]
[2]; [12]
  Encapsulation Efficiency %: 97.9%
[2]; [22]
  Encapsulation Efficiency %: 92.8%
[3]; [13]
  Zeta potential: −13.69 mV
[3]; Table 5, LNP 60:0:38.5:1.5 mol %
  Zeta potential: −17.91 mV
[4]; [12]
  PDI: 0.304
[4]; [22]
  PDI: 0.116
  Size: 211.9 nm
[4]; [14]
  Size: 53.9 nm

## CCCCCCCCCCCC(=O)OCCN(CCOC(=O)CCCCCCCCCCC)C(=O)C(N)Cc1ccccc1 (stereo not drawn) [Compound 115]
[2]; [20]
  Encapsulation Efficiency %: 89.5%
[3]; [21]
  Zeta potential: −2.403 mV
[4]; [20]
  PDI: 0.291
  Size: 70.8 nm

## CCCCCCCCC(CCCCCC)C(=O)OCCN(CCOC(=O)C(CCCCCC)CCCCCCCC)C(=O)C(C)CCN(CCCC)CCCC.Cl (stereo not drawn) [Compound 987o]
[2]; [15]
  Encapsulation Efficiency %: 90.2%
[3]; [16]
  Zeta potential (mV): −4.1 mV
[4]; [15]
  PDI: 0.121
  Size (nm): 57.4 nm

## CCCCCCCCCCCCC(CC)C(=O)OCCN(CCOC(=O)C(CC)CCCCCCCCCCCC)C(=O)C(N)Cc1ccccc1 (stereo not drawn) [Compound 620]
[2]; [12]
  Encapsulation Efficiency %: 99%
[3]; [13]
  Zeta potential: −5.044 mV
[4]; [12]
  PDI: 0.23
[4]; [14]
  Size: 56.7 nm

## CCCCCCCCC(CCCCCC)C(=O)OCCCCCCN(CCCCO)CCCCCCOC(=O)C(CCCCCC)CCCCCCCC (stereo not drawn) [ALC-0315, reference compound]
[2]; [17]
  Encapsulation Efficiency %: 83.8%
[2]; [15]
  Encapsulation Efficiency %: 91.0%
[3]; [18]
  Zeta potential (mV): −10.3 mV
[3]; [16]
  Zeta potential (mV): −7.5 mV
[4]; [19]
  PDI: 0.295
  Size (nm): 61.4 nm
[4]; [15]
  PDI: 0.280
  Size (nm): 74.7 nm
